Results taken from ChEMBL document CHEMBL3593240, “Structure-based development of nitroxoline derivatives as potential multifunctional anti-Alzheimer agents” (Bioorg Med Chem, 2015).
Active and inactive are the calls of the source. The rule behind the calls is not given here.

How the values were obtained:
Cholinesterase [1] = molecular target: T1, Cholinesterase (Homo sapiens, UniProt P06276); test: Inhibition of human recombinant BChE using butyrylthiocholine iodide as substrate assessed as residual activity at 30 uM after 5 mins by Ellman's method relative to control
[2] = molecular target: T2, Acetylcholinesterase (Mus musculus) (UniProt P21836); test: Inhibition of […] iodide as substrate assessed as residual activity at 30 uM after 5 mins by Ellman's method relative to control
T2 sequence (whole entry): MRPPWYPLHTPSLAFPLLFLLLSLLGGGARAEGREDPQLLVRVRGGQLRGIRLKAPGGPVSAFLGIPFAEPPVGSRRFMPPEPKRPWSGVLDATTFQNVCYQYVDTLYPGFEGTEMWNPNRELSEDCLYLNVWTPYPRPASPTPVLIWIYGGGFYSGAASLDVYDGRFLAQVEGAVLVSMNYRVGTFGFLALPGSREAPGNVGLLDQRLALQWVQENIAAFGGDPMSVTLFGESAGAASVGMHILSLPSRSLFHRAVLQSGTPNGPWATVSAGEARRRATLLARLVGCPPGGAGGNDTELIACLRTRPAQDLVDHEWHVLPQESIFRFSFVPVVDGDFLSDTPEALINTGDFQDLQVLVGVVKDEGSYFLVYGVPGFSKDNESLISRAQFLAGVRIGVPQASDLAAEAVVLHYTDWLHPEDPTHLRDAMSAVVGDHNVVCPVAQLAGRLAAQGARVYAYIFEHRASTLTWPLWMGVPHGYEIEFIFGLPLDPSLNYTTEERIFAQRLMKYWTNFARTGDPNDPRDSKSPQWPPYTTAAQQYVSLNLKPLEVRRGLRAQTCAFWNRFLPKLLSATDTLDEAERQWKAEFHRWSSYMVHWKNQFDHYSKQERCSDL

[3] = Metal chelating activity of the compound assessed as Zn2+ complex formation at 30 uM after 10 mins by UV-vis spectrometry; assay type: physicochemical
[4] = molecular target: Amyloid-beta precursor protein (Homo sapiens) (UniProt P05067); test: Inhibition of human recombinant amyloid beta (1 to 42) self aggregation at 10 uM after 12 hrs by dot-blot assay
[5] = Metal chelating activity of the compound assessed as Cu2+ complex formation at 30 uM after 10 mins by UV-vis spectrometry; assay type: physicochemical
[6] = Metal chelating activity of the compound assessed as Fe2+ complex formation at 30 uM after 10 mins by UV-vis spectrometry; assay type: physicochemical
[7] = Metal chelating activity of the compound assessed as Co2+ complex formation at 30 uM after 10 mins by UV-vis spectrometry; assay type: physicochemical
[8] = Solubility of the compound at 30 uM; assay type: physicochemical
[9] = Antioxidant activity assessed as DPPH radical scavenging activity; assay type: physicochemical
[10] = Metal chelating activity of the compound assessed as Mg2+ complex formation at 30 uM after 10 mins by UV-vis spectrometry; assay type: physicochemical
[11] = Binding affinity to Cu2+ using CuCl2 at 30 uM by isothermal titration calorimetry analysis
[12] = Binding affinity to Cu2+ using CuCl2 at 30 uM after 45 mins
[13] = Metal chelating activity of the compound assessed as Ca2+ complex formation at 30 uM after 10 mins by UV-vis spectrometry; assay type: physicochemical
Cholinesterase [14] = molecular target: T1, Cholinesterase
Description: Inhibition of human recombinant BChE using butyrylthiocholine iodide as substrate after 5 mins by Ellman's method

Sequence of Amyloid-beta precursor protein (Homo sapiens) (P05067 whole entry): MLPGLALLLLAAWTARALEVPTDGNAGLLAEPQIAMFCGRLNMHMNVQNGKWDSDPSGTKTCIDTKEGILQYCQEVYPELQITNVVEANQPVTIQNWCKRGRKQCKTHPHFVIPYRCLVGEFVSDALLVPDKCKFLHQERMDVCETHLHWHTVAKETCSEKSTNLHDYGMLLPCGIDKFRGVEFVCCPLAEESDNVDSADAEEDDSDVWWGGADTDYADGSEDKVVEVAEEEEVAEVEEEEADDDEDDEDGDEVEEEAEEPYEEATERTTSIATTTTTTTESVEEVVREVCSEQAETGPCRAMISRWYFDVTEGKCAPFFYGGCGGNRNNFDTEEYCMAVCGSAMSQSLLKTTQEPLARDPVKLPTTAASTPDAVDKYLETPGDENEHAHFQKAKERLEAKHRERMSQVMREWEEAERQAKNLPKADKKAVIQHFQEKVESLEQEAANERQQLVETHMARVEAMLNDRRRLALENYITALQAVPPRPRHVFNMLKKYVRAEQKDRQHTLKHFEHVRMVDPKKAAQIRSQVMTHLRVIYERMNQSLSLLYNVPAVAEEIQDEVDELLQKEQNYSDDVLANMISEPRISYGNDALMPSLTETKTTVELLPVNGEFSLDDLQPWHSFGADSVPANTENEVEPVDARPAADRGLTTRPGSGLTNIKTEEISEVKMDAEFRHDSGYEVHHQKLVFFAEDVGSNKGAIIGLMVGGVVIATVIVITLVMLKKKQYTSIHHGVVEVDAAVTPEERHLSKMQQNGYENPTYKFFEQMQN
T1 sequence (P06276 whole entry): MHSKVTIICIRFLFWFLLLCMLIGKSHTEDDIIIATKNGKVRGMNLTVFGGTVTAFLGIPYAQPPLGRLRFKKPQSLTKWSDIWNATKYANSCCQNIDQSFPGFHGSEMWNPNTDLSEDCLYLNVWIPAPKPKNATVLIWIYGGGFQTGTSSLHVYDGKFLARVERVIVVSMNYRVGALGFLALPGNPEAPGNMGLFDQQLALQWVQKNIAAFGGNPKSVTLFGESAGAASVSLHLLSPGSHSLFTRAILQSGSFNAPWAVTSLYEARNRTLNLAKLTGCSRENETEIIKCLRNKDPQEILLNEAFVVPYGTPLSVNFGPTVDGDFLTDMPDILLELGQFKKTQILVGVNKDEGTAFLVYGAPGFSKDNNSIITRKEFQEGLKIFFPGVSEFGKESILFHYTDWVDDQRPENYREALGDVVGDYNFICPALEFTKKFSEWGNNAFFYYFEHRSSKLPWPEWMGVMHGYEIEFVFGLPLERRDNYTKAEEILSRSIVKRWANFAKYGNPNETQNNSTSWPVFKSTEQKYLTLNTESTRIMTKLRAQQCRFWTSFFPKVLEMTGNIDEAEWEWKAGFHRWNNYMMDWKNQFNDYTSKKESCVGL

SMILES	Ratio (Cholinesterase [1])	Ratio [2]	Activity [3]	inhibition [4] [%]	Activity [5]	Activity [6]	Activity [7]	solubility [8]	EC50 [9] [µM]	inhibition [2]	Activity [10]	Kd [11] [µM]	Activity [12]	Activity [13]	IC50 (Cholinesterase [14]) [µM]	inhibition (Cholinesterase [1])
O=C(NCC1CCCN(C2Cc3ccccc3C2)C1)c1cc([N+](=O)[O-])c2cccnc2c1O (stereo not drawn)	0.747	0.641	Active	28.7	Active	Active	Active	soluble	524							
O=C(NCC1CCCN(c2nc3ccccc3o2)C1)c1cc([N+](=O)[O-])c2cccnc2c1O (stereo not drawn)	0.914		Active	35.5	Active	Active	Active	soluble	881	inactive						
O=C(NCC1CCCN(Cc2nc3ccccc3s2)C1)c1cc([N+](=O)[O-])c2cccnc2c1O (stereo not drawn)	0.444		Active	53.4	Active	Active	Active	soluble	1330	inactive						
COCCN(CC1CCCN(C2Cc3ccccc3C2)C1)C(=O)c1cc([N+](=O)[O-])c2cccnc2c1O (stereo not drawn)	0.014		Active	20.1	Active	Active	Active	soluble	3450	inactive	Not Active	0.25	Active	Not Active	0.215	
COCCN(CC1CCN(Cc2nc3ccccc3s2)CC1)C(=O)c1cc([N+](=O)[O-])c2cccnc2c1O	0.129		Active	44.2	Active	Active	Active	soluble	4140	inactive					2.14	
COCCN(CC1CCN(Cc2nc3ccccc3o2)CC1)C(=O)c1cc([N+](=O)[O-])c2cccnc2c1O	0.805		Active	34.9	Active	Active	Active	soluble	770	inactive	Not Active			Not Active		
O=c1c(O)c(-c2ccc(O)c(O)c2)oc2cc(O)cc(O)c12 [QUERCETIN]									10.9							
COCCN(CC1CCCN(C2Cc3ccccc3C2)C1)C(=O)c1ccc2ccccc2c1 (stereo not drawn)										inactive						
O=C(NCC1CCCN(c2nc3ccccc3s2)C1)c1cc([N+](=O)[O-])c2cccnc2c1O (stereo not drawn)			Active	33.3	Active	Active	Active	soluble	3830	inactive						inactive
